The record followed here is PubChem BioAssay AID743160 (Sanford-Burnham Center for Chemical Genomics, 2013).

Active and inactive are the calls of the source. The rule behind the calls is not given here.

The assay has as its system H9c2 cells, DAPI nuclear count (cytotoxicity), overnight. The assay can be described thus: H9c2 cardiomyoblast cytotoxicity by nuclear count, SAR follow-up, cytotoxicity control for triacylglycerol accumulation inhibitor project, cell-based, DAPI fluorescence (AID 743160).
Broadly, the IC50 is the midpoint of a concentration-inhibition curve. Regarding `O=C(CSc1nc2ccc(Nc3nc(N4CCOCC4)nc(N4CCOCC4)n3)cc2s1)NCc1ccco1`, the IC50 was > 50 µM (inactive).
Consider `COCCN1Cc2cccc(C(=O)Nc3cccc(C(=O)Nc4ccccc4OC)c3)c2C1=O`, for which the IC50 is > 50 µM (inactive).
Regarding `CCOCCN1Cc2cccc(C(=O)Nc3cccc(-c4nc5ccccc5[nH]4)c3)c2C1=O`, the IC50 is > 50 µM (inactive).
Next, `CCOC(=O)c1cccc(NC(=O)c2cccc3c2C(=O)N(CCOC)C3)c1`: > 50 µM (inactive).
Take `COCCN1Cc2cccc(C(=O)Nc3cccnc3)c2C1=O`: the IC50 is > 50 µM (inactive).
Regarding `CCC(C)(C)NC(=O)C(c1ccc(OC)cc1)N(Cc1cccs1)C(=O)CCC(=O)Nc1cc(C)on1` (stereo unspecified), the IC50 is > 50 µM (inactive).
Consider `O=C(Nc1cccc2ncccc12)c1ccc(Cl)cc1`, for which the IC50 is > 50 µM (inactive).
Consider `CCOc1ccc(NC(=O)CN(C)C(=O)c2cc(-c3ccc(OC)cc3)nc3ccccc23)cc1OCC`, for which the IC50 was > 50 µM (inactive).
The same measure for `COCCN1Cc2cccc(C(=O)Nc3nc4ccccc4n3C)c2C1=O`: > 50 µM (inactive); for `COc1ccccc1CCN1Cc2cccc(C(=O)Nc3cccc(-c4nc5ccccc5[nH]4)c3)c2C1=O`: > 50 µM (inactive); for `CSCCCN1Cc2cccc(C(=O)Nc3cccc(-c4nc5ccccc5[nH]4)c3)c2C1=O`: > 50 µM (inactive).
Next, `COCCN1Cc2cccc(C(=O)Nc3cccc(-c4nc5ccc(F)cc5[nH]4)c3)c2C1=O`: > 50 µM (inactive); `CN(C)CCCn1c(SCC(=O)Nc2nc(-c3cccc(Br)c3)cs2)nc2ccccc2c1=O`: 27.1 µM (inactive); `CCC(C)(C)NC(=O)C(c1ccc(C)cc1)N(Cc1ccco1)C(=O)CCC(=O)Nc1nccs1` (stereo unspecified): > 50 µM (inactive).
Next, `Cc1ccccc1OCCNc1cc(N2CC(C)NC(C)C2)ccc1[N+](=O)[O-]` (stereo unspecified): > 50 µM (inactive).
For `COCCn1cnc2cccc(C(=O)Nc3cccc(-c4nc5ccccc5[nH]4)c3)c2c1=O`, the IC50 was > 50 µM (inactive).
On to `CCCCN1Cc2cccc(C(=O)Nc3cccc(-c4nc5ccccc5[nH]4)c3)c2C1=O`, for which the IC50 was > 50 µM (inactive).
The same measure for `O=C(Nc1cccc(-c2nc3ccccc3[nH]2)c1)c1cccc2c1C(=O)N(CCOc1ccccc1)C2`: > 50 µM (inactive); for `O=C1COc2ccc(C(=O)CSc3nc4ccccc4c(=O)n3-c3ccc(Cl)c(Cl)c3)cc2N1`: 7.69 µM (inactive); for `Cc1ccccc1NC(=O)CSc1nc(Nc2ccccc2)nc(N2CCOCC2)n1`: > 50 µM (inactive).
Next, `Cc1cc(C)c2nc(-c3ccncc3)cc(C(=O)N3CCN(Cc4ccccc4Cl)CC3)c2c1`: 23.6 µM (inactive); `COCCCN1Cc2cccc(C(=O)Nc3cccc(-c4nc5ccccc5[nH]4)c3)c2C1=O`: > 50 µM (inactive).
The same measure for `COCCN1Cc2cccc(C(=O)Nc3cccc(-c4nc5ccccc5[nH]4)c3)c2C1=O`: > 50 µM (inactive).
`CCOc1ccccc1NC(=O)c1cccc(NC(=O)c2ccco2)c1`: the IC50 is 23.2 µM (inactive).
Next, `O=C(CSc1nc2ccc(Nc3nc(N4CCOCC4)nc(N4CCOCC4)n3)cc2s1)Nc1ccccc1Cl`: 27.8 µM (inactive); `COc1ccc(CCN2Cc3cccc(C(=O)Nc4cccc(-c5nc6ccccc6[nH]5)c4)c3C2=O)cc1OC`: > 50 µM (inactive); `O=C(Nc1cccc(-c2nc3ccccc3[nH]2)c1)c1cccc2c1C(=O)N(CC1CC1)C2`: > 50 µM (inactive).
Next, `Cc1ccc(Nc2nc(OC(C(F)(F)F)C(F)(F)F)nc(N3CCOCC3)n2)cc1`: > 50 µM (inactive); `Cc1ccc(-c2nc(NC(=O)c3cc(C(C)(C)C)nn3C)sc2C)cc1Cl`: > 50 µM (inactive); `COCCN1Cc2cccc(C(=O)Nc3cccc(-c4nc5ccc(Cl)cc5[nH]4)c3)c2C1=O`: > 50 µM (inactive).
Next, `CCCC(=O)Nc1nc2ccc(NC(=O)c3ccccc3F)cc2s1`: > 50 µM (inactive); `Cc1ccccc1NC(=O)CSc1nc2ccc(Nc3nc(N4CCOCC4)nc(N4CCOCC4)n3)cc2s1`: 40 µM (inactive); `COc1cccc(-c2cc(C(=O)Nc3ccc(N(C)C(C)=O)cc3)c3cc(Br)ccc3n2)c1`: > 50 µM (inactive).
As for `O=C(Nc1cccc(-c2nc3ccccc3[nH]2)c1)c1cccc2c1C(=O)N(CCc1ccccc1)C2`, the IC50 is > 50 µM (inactive).
For the molecule `O=[N+]([O-])c1ccc(Nc2nc(NC3CCCCC3)nc(N3CCCC3)n2)cc1`, the IC50 is 11 µM (inactive).
The same measure for `COc1cc(NC(=O)c2cc([N+](=O)[O-])ccc2NC(=O)CN2CCN(c3ccccn3)CC2)cc(OC)c1`: > 50 µM (inactive); for `CCCCSc1nc2ccc(Nc3nc(N4CCOCC4)nc(N4CCOCC4)n3)cc2s1`: > 50 µM (inactive).
As for `COc1cc2c(cc1OC)C(C)N(C(=O)c1cc3c(C)cc(C)cc3[nH]1)CC2` (stereo unspecified), the IC50 was > 50 µM (inactive).
On to `Cc1cccc2c(C(=O)N3CCN(c4ccccc4)CC3)cc(-c3ccncc3)nc12`, for which the IC50 was > 50 µM (inactive).
Next, `O=C(Nc1cccc(-c2nc3ccccc3[nH]2)c1)c1cccc2c1C(=O)N(CCN1CCOCC1)C2`: > 50 µM (inactive); `COCCN1Cc2cccc(C(=O)NCc3cccc(N(C)C)c3)c2C1=O`: > 50 µM (inactive); `CCCC(=O)Nc1nc2ccc(NC(=O)c3c(F)c(F)c(OC)c(F)c3F)cc2s1`: > 50 µM (inactive).
Turning to `COCCN1Cc2cccc(C(=O)Nc3cccc(-c4nc5ccc(C)cc5[nH]4)c3)c2C1=O`, the IC50 is > 50 µM (inactive).
For the molecule `CCn1c(SCC(=O)Nc2nc(-c3ccc(C)cc3)cs2)nnc1-c1ccccc1O`, the IC50 was 8.1 µM (inactive).
With `Cc1ccc(-c2csc(NC(=O)CSc3nc4ccccc4c(=O)n3CCCN(C)C)n2)cc1`, the IC50 is > 50 µM (inactive).
Next, `COCCN1Cc2cccc(C(=O)Nc3cccc(-c4nc5ccc(C(F)(F)F)cc5[nH]4)c3)c2C1=O`: > 50 µM (inactive); `COCCN1Cc2cccc(C(=O)Nc3cccc(C(=O)Nc4ccccc4)c3)c2C1=O`: > 50 µM (inactive).
Next, `CCOC(=O)c1cc(-c2ccccc2)sc1NC(=O)C(C)N1C(=O)NC(C)(c2ccc(Cl)cc2)C1=O` (stereo unspecified): > 50 µM (inactive); `COCCN1Cc2cccc(C(=O)Nc3nc4ccccc4[nH]3)c2C1=O`: > 50 µM (inactive).
On to `CCN(CC)S(=O)(=O)c1ccc(N2CCOCC2)c(NC(=O)c2[nH]c(C)c(C(C)=O)c2C)c1`, for which the IC50 was > 50 µM (inactive).
Next, `O=C(CCC(=O)N1CCOc2ccc(Cl)cc21)NCCCN1CCC(Cc2ccccc2)CC1`: 13.5 µM (inactive).
